The assay deals with rTg4510 mice. As to the kind of experiment: Morris Water Maze behavioral test, study of Example 2. Format: in vivo. Particulars: once daily by gavage, 7 and 20 mg/kg, statistical significance at 20 mg/kg, FIG. 4. Here is the method:
Double transgenic rTg4510 mice are an aggressive Tauopathy model expressing the full-length human Tau carrying the P301L mutation (Tau4R0N-P301L) under the control of the tetracycline-inducible CaMKII promoter (Ramsden et al., 2005). Wild-type animals and single transgenic mice expressing only the tetracycline-controlled transactivator (tTA) were used as genotype controls. Mice were treated and tested. The study comprised 4 treatment groups (n=15 female mice/group) with the following group distribution (see Table 6). Compound of the invention or vehicle control were administered once daily by gavage for 12 weeks starting at the age of 5.5 weeks. The Morris Water Maze (MWM) behavioral test was performed after 12.5 weeks of treatment over 5 consecutive days. During MWM testing daily dosing was continued. Behavioral testing (MWM) and biochemical quantification of sarkosyl-insoluble Tau were performed on all mice (n=15 mice/group). […]
The MWM was performed in a circular tank, measuring 48″ in diameter. […] Trials were video recorded and analyzed by a computer program (WaterMaze; Actimetrics, Wilmette, Ill.). […] Percent crossing in each quadrant (target, left and right adjacent, and opposite) was calculated for probe trials. Data were analyzed by 2-way ANOVA followed by post-hoc comparisons and shown statistics refers to differences compared to vehicle treated rTg4510 mice.

As for `CN(C)[C@@H]1CCc2c(c3ccc(Nc4ccc5sc(N6CCOCC6)nc5c4)nc3n2C)C1` [Example 2], the “percentage of platform crossings in the target compared to the opposite quadrant (MWM probe trial)” value is listed as “dose-dependent increase”.

Values taken from US12202840B2, “Compounds for the treatment or alleviation of disorders associated with Tau aggregates” (AC Immune SA, priority 2018, dated 2025).
